The text below walks through data of article PMC6009858, “Tricyclic coumarin sulphonate derivatives with alkaline phosphatase inhibitory effects: in vitro and docking studies” (Journal of Enzyme Inhibition and Medicinal Chemistry, 2018).

Data set [1] has as its target T1, human intestinal alkaline phosphatase (h-IAP) (Homo sapiens, UniProt P09923).
T1 sequence (P09923 20-528): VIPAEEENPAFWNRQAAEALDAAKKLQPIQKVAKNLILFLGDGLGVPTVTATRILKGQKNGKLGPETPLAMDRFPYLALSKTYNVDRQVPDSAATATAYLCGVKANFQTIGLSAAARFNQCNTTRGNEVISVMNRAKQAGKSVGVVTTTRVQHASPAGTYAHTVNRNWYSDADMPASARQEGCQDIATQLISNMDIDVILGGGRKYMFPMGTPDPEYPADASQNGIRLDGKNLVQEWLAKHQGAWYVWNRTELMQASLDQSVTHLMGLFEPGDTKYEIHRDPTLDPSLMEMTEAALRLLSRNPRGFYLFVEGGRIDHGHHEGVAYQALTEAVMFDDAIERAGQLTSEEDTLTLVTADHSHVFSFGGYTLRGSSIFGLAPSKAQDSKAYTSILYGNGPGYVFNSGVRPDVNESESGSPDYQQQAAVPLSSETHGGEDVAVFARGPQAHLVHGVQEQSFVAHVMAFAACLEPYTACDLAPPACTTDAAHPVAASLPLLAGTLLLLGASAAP
As to the kind of experiment: Alkaline phosphatase inhibition assay (h-IAP), CDP-star luminescence. In kind it is biochemical. To be noted: for IC50: IC50 ± SEM, n = 3, DEA buffer. How it is done: (§1) The inhibition assay was performed by following the already reported method[18] and the inhibitory activity was measured at the final concentration of 200 µM in diethanolamine (DEA) buffer as discussed in our published article. The first step of the inhibition assay was the treatment of 10 µl of tested derivatives with 20 µl of h-TNAP (46 ng/well) or of h-IAP (57 ng/well). The plates were incubated at 37 °C for 5–10 min, and luminescence signals were recorded by microplate reader (BioTek FLx800, Instruments, Inc., Winooski, VT). Then, 20 µl of CDP-star® substrate was added to each reaction mixture and signals were again measured as after-read, after 15–20 min of incubation. The data were scrutinised by PRISM 5.0 (GraphPad, San Diego, CA) software and the inhibitory concentration values (IC50 values) were attained as discussed earlier.

Data set [2] addresses T2, human tissue nonspecific alkaline phosphatase (h-TNAP) (Homo sapiens, UniProt P05186).
T2 sequence (P05186 18-524): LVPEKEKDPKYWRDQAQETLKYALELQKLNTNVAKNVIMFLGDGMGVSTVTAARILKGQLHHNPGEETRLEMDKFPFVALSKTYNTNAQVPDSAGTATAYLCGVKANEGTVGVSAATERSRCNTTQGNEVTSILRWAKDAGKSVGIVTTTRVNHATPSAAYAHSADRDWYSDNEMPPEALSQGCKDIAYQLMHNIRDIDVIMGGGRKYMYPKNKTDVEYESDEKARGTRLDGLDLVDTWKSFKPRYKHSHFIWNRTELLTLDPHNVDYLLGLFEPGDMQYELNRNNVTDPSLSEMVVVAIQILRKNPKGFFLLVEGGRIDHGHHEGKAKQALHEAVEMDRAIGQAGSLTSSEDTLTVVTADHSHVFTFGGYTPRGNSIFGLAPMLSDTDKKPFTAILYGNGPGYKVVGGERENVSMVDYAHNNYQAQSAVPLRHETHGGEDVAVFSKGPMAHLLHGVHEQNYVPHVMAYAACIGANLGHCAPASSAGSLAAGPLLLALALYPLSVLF
Description: Alkaline phosphatase inhibition assay (h-TNAP), CDP-star luminescence. It counts as biochemical. The note with it: for IC50: IC50 ± SEM, n = 3, DEA buffer; for selectivity h-TNAP over h-IAP (in words): h-TNAP versus h-IAP. As to the method: as §1, with “The plates were incubated at 37 °C for 5–10 min, and luminescence signals were recorded by microplate reader (BioTek FLx800, Instruments, Inc., Winooski, VT).” left out

Details of data set [3]: method as in PMID 24360561, PMID 25016229, PMID 27779319. The note with it: previously reported data; cited from earlier work.
Another data set has as its system colon cancer cell line. More on the design: method as in PMID 24360561, PMID 25016229, PMID 27779319. To be noted: previously reported data; cited from earlier work.

The structures appear in SMILES notation.

For `CS(=O)(=O)Oc1ccc2c3c(c(=O)oc2c1)CCCCC3` [Compound 1a], the values for the IC50 in data set [1] and in data set [2] were 1.98 ± 0.19 µM and 0.48 ± 0.01 µM, respectively.

Take `CCS(=O)(=O)Oc1ccc2c3c(c(=O)oc2c1)CCCCC3` [Compound 1b]: the results for the IC50 in data set [1] and in data set [2] were 2.71 ± 0.23 µM and 2.13 ± 0.19 µM, respectively.

Turning to `CCCS(=O)(=O)Oc1ccc2c3c(c(=O)oc2c1)CCCCC3` [Compound 1c], the IC50 (usually the midpoint of a concentration-inhibition curve) in data set [1] was 0.91 ± 0.06 µM; in data set [2] it was 1.52 ± 0.17 µM.

Turning to `O=c1oc2cc(OS(=O)(=O)C3CC3)ccc2c2c1CCCCC2` [Compound 1d], the IC50 in data set [1] worked out at 0.96 ± 0.08 µM; in data set [2], 0.98 ± 0.13 µM.

Consider `O=c1oc2cc(OS(=O)(=O)c3ccccc3)ccc2c2c1CCCCC2` [Compound 1e], for which the IC50 in data set [1] was 1.84 ± 0.19 µM; in data set [2], 8.57 ± 0.73 µM.

Turning to `Cc1ccc(S(=O)(=O)Oc2ccc3c4c(c(=O)oc3c2)CCCCC4)cc1` [Compound 1f], the IC50 in data set [1] came to 1.94 ± 0.11 µM; in data set [2], 0.38 ± 0.01 µM.

For `O=c1oc2cc(OS(=O)(=O)c3ccc(F)cc3)ccc2c2c1CCCCC2` [Compound 1i], the melting point – broadly, the temperature, or range, at which the solid turns liquid – fell in the range of 147 to 149 °C. In data set [3], the “anti-inflammatory effects (in words)” value is listed as “maximum anti-inflammatory effects”. In data set [1], this compound yielded a concentration for half-maximal inhibition (IC50) of 0.45 ± 0.09 µM. In addition, the “antiproliferative effect against colon cancer cell line (in words)” value in the data set on colon cancer cell line is “strongest antiproliferative derivatives”. Moreover, in data set [2], the IC50 was found to be 1.06 ± 0.11 µM.

In the case of `CCS(=O)(=O)Oc1ccc2c3c(c(=O)oc2c1)CCCCCC3` [Compound 1j], the figures for the IC50 in data set [1] and in data set [2] were 0.84 ± 0.09 µM and 1.74 ± 0.14 µM, respectively.

Take `CCCS(=O)(=O)Oc1ccc2c3c(c(=O)oc2c1)CCCCCC3` [Compound 1k]: the IC50 is 3.37 ± 0.79 µM in data set [1] and 1.91 ± 0.11 µM in data set [2].

Regarding `O=c1oc2cc(OS(=O)(=O)c3ccccc3)ccc2c2c1CCCCCC2` [Compound 1l], the IC50 is 2.82 ± 0.82 µM in data set [1] and 1.13 ± 0.21 µM in data set [2].

For `Cc1ccc(S(=O)(=O)Oc2ccc3c4c(c(=O)oc3c2)CCCCCC4)cc1` [Compound 1m], the “anti-inflammatory effects (in words)” value in data set [3] is “maximum anti-inflammatory effects”. For the same compound, the figures for the IC50 in data set [1] and in data set [2] were 2.12 ± 0.23 µM and 1.59 ± 0.16 µM, respectively. The “antiproliferative effect against colon cancer cell line (in words)” value in the data set on colon cancer cell line is listed as “strongest antiproliferative derivatives”.

`COc1cc2c3c(c(=O)oc2cc1OS(C)(=O)=O)CCCCC3` [Compound 1o]: the figures for the IC50 in data set [1] and in data set [2] were 11.8 ± 1.91 µM and 1.21 ± 0.11 µM, respectively.

With `COc1cc2c3c(c(=O)oc2cc1OS(C)(=O)=O)CCCCCC3` [Compound 1p], the IC50 in data set [1] turned out to be 1.51 ± 0.17 µM; in data set [2], 1.49 ± 0.13 µM.

In data set [1], `CCCS(=O)(=O)Oc1cc2oc(=O)c3c(c2cc1OC)CCCCC3` [Compound 1q] returned a concentration for half-maximal inhibition (IC50) of more than 100 µM. In data set [2], the IC50 stood at 4.31 ± 0.99 µM and the “selectivity h-TNAP over h-IAP (in words)” value is given as “selective inhibitors of h-TNAP”.

As to `CCCS(=O)(=O)Oc1cc2oc(=O)c3c(c2cc1OC)CCCCCC3` [Compound 1r], the IC50 in data set [1] came to 0.75 ± 0.07 µM; in data set [2], 2.6 ± 0.49 µM.

In the case of `COc1cc2c3c(c(=O)oc2cc1OS(=O)(=O)c1ccccc1)CCCCC3` [Compound 1s], the results for the IC50 in data set [1] and in data set [2] were 3.88 ± 0.32 µM and 1.26 ± 0.07 µM, respectively.

`COc1cc2c3c(c(=O)oc2cc1OS(=O)(=O)c1ccccc1)CCCCCC3` [Compound 1t]: the IC50 in data set [1] worked out at 0.83 ± 0.06 µM; in data set [2], 2.68 ± 0.18 µM.

On to `COc1cc2c3c(c(=O)oc2cc1OS(=O)(=O)c1ccc(C)cc1)CCCCC3` [Compound 1u], for which the IC50 in data set [1] is 0.79 ± 0.05 µM; in data set [2], 1.65 ± 0.13 µM.

As to `COc1cc2c3c(c(=O)oc2cc1OS(=O)(=O)c1ccc(C)cc1)CCCCCC3` [Compound 1v], the IC50 in data set [1] is 1.45 ± 0.04 µM; in data set [2], 0.64 ± 0.02 µM.

As for `COc1cc2c3c(c(=O)oc2cc1OS(=O)(=O)c1ccc(C(F)(F)F)cc1)CCCCC3` [Compound 1w], the IC50 in data set [1] and in data set [2] was more than 100 µM in each case.

Consider `COc1cc2c3c(c(=O)oc2cc1OS(=O)(=O)c1ccc(C(F)(F)F)cc1)CCCCCC3` [Compound 1x], for which the IC50 amounted to 1.63 ± 0.19 µM in data set [1] and 1.29 ± 0.12 µM in data set [2].

For `CS(=O)(=O)Oc1cc2oc(=O)c3c(c2cc1Cl)CCCCC3` [Compound 1y], in data set [1], the “activity towards h-IAP (in words)” value was “inactive” and the IC50 is more than 100 µM. This compound came in with an IC50 in data set [2] of more than 100 µM.

For `O=c1oc2cc(OS(=O)(=O)c3ccccc3)c(Cl)cc2c2c1CCCCC2` [Compound 1z], in data set [1], the “activity towards h-IAP (in words)” value is “inactive” and the IC50 is more than 100 µM. In data set [2], the IC50 stood at 5.73 ± 1.06 µM and the “selectivity h-TNAP over h-IAP (in words)” value was “selective inhibitors of h-TNAP”.

Regarding `Cc1ccc(S(=O)(=O)Oc2cc3oc(=O)c4c(c3cc2Cl)CCCCC4)cc1` [Compound 1za], the IC50 came to 1.11 ± 0.01 µM in data set [1] and 2.22 ± 0.27 µM in data set [2].

Compound `N[C@@H](Cc1ccccc1)C(=O)O` [L-Phenylalanine, reference compound] displayed an IC50 in data set [1] of 100 µM.
